Laboratory results taken from PubChem BioAssay (NCI).
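Exposure lasted 48 hours, with cells grown in 96-well plates and compounds tested at five concentrations. TGI is the concentration that stops growth completely.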

Columns and labels:
Experiment in all cases: NCI tumour cell line growth inhibition, 48 h
[1] = system: OVCAR-4 ovarian
[2] = system: TK-10 renal
[3] = system: COLO 205 colon
[4] = system: ACHN renal
[5] = system: NCI-H522 lung
[6] = system: 786-0 renal
[7] = system: HL-60(TB) leukemia
[8] = system: HCC-2998 colon
[9] = system: HT29 colon
[10] = system: CAKI-1 renal
[11] = system: LXFL 529 NSCLC
[12] = system: SF-539 CNS
[13] = system: OVCAR-3 ovarian
[14] = system: MOLT-4 leukemia
[15] = system: HCT-15 colon
[16] = system: UO-31 renal
[17] = system: M19-MEL melanoma
[18] = system: EKVX NSCLC
[19] = system: HOP-62 NSCLC
[20] = system: SK-MEL-2 melanoma
[21] = system: NCI-H226 lung
[22] = system: A498 renal
[23] = system: CCRF-CEM leukemia
[24] = system: SK-OV-3 ovarian
[25] = system: MALME-3M melanoma
[26] = system: SK-MEL-28 melanoma
[27] = system: U251 CNS
[28] = system: DMS 114 small cell lung
[29] = system: M14 melanoma
[30] = system: KM12 colon
[31] = system: SNB-19 CNS
[32] = system: DLD-1 colon
[33] = system: SF-295 CNS
[34] = system: SNB-78 CNS
[35] = system: NCI-H460 lung
[36] = system: NCI-H23 lung
[37] = system: UACC-62 melanoma
[38] = system: SN12C renal
[39] = system: SW-620 colon
[40] = system: SR leukemia
[41] = system: SK-MEL-5 melanoma
[42] = system: LOX IMVI melanoma
[43] = system: A549 NSCLC
[44] = system: KM20L2 colon
[45] = system: HCT-116 colon
[46] = system: SNB-75 CNS
[47] = system: DMS 273 small cell lung
[48] = system: HOP-18 NSCLC
[49] = system: UACC-257 melanoma
[50] = system: RXF 393 renal
[51] = system: HOP-92 NSCLC
[52] = system: OVCAR-8 ovarian
[53] = system: K-562 leukemia
[54] = system: IGROV1 ovarian
[55] = system: OVCAR-5 ovarian
[56] = system: SF-268 CNS

Measured: TGI

COc1ccccc1-n1c(C)nc2ccccc2c1=O
> 100 µM: all assays above
